One assay deals with C57BL6/J mice. The assay is described as follows: TPA-induced edema of abdominal skin, topical administration. Type of assay: in vivo, mouse. Conditions: PEA 450 μg, GW7647 755 μg.
The test system of another assay is Swiss mice. Nature of the assay: Sciatic nerve ligation neuropathy, mechanical and thermal hyperalgesia. Type of assay: in vivo, mouse. The conditions noted are these: for mechanical and thermal pain thresholds in the non-ligated paw of neuropathic mice: data not shown; for neuropathic hypersensitivity (mechanical and thermal pain thresholds), ligated limb: single s.c. dose day 7 and 14 after surgery, 60 min before test, PEA, GW7647 30 mg-kg^−1, gabapentin 60 mg-kg^−1. On the procedure: To examine whether PPARα agonists modulate the persistent pain hypersensitivity associated with nerve injury, peripheral neuropathy was produced in mice by partially ligating the left sciatic nerve, a surgical procedure that results in the development of mechanical and thermal hyperalgesia in the operated limb (Bennett et al., Pain, 33, 87 (1988)).
Sciatic nerve ligation was performed essentially following the method of Bennett and Xie (Bennett et al., Pain 33, 87 (1988)). Briefly, male Swiss mice were anesthetized with sodium pentobarbital, the left sciatic nerve was exposed at mid-thigh level through a small incision and one-third to one-half of the nerve thickness was tightly ligated with a silk thread. The wound was closed with a single muscle suture and skin clips, and dusted with streptomycin powder. In sham-operated animals, the nerve was exposed but not ligated.
Mechanical hyperalgesia was determined by measuring paw withdrawal thresholds to an increasing pressure onto the dorsal surface of the paw using an analgesimeter (Ugo Basile, Italy) with a cut-off of 250 g. Withdrawal thresholds were measured on both the ipsilateral paw (inflamed or ligated) and contralateral paw (uninflamed or unligated) 60 min after subcutaneous drug administration.
Thermal hyperalgesia was assessed by the methods of Hargreaves (Hargreaves et al., Pain, 32, 77 (1988)) by measuring the latency to withdraw the hind paws from a focussed beam of radiant heat applied to the plantar surface, using an appropriate apparatus (Ugo Basile, Italy). The cut-off time was set at 30 sec. The mice were habituated to the apparatus for 10-15 min two days prior to the experiment.

For another assay, the system named is PPARα mRNA. Nature of the assay: PPARα mRNA expression in inflamed mouse skin. Format: in vivo. Conditions: topical to inflamed abdominal skin; PEA 450 μg, GW7647 755 μg.
The target in another assay is T1, human CB2 (Homo sapiens, UniProt P34972).
T1 construct: purchased Perkin-Elmer, Boston, Mass; host or cells: CHO cells (membranes)
The assay is described as follows: CB2 receptor binding, [3H]-WIN-55212-2 displacement in CB2-overexpressing CHO cell membranes.

The test system of assay [1] is mice. The assay is described as follows: Formalin-evoked pain behavior (hind paw licking). Format: in vivo, mouse. Conditions: for early and late phase formalin-evoked nociception, combination with anandamide: 0.1 μg/paw of each; for anti-inflammatory effect (paw weight) after formalin: 50 μg/paw, 45 minutes after intraplantar formalin, C57BL/6J mice. On the procedure:
Administration of formalin into the mouse hind paw evokes a pain behavior consisting of two temporally distinct phases of licking and flexing of the injected limb (Dubuisson, et al., Pain 4, 161-74 (1977)). The first phase, which starts immediately after formalin injection and lasts 5-10 min, is due to activation of nociceptive fibers and is accompanied by the local release of nitric oxide and adenosine [Dickenson, et al., Neurosci Lett 83, 207-11 (1987); Omote, et al., Brain Res 787, 161-4 (1998); Omote et al., 2000; Liu, et al., J Neurochem 80, 562-70 (2002)]. Following a quiescent interval of 10-15 minutes, a second phase of nociceptive behavior appears, which is associated with local inflammation [Rosland, et al., Pain 42, 235-42 (1990)] and central sensitization [Coderre, et al., J Neurosci 12, 3665-70 (1992)]. […] (2001); Farquuar-Smith, 2002]. […] The effects of PEA in C57BL/6J mice in which the PPARα gene had been deleted by homologous recombination (PPARα^−/−)[Lee, et al., Mol Cell Biol 15, 3012-22 (1995)] were examined to determine whether PPARα contributes to these properties.
Although PPARα is known to regulate the inflammatory response [Devchand, et al., Nature 384, 39-43. (1996); Cabrero, et al., Curr Drug Targets Inflamm Allergy 1, 243-8 (2002); Berger, et al., Annu Rev Med 53, 409-35 (2002); Chinetti, et al., Inflamm Res 49, 497-505 (2000)], its roles in the modulation of acute nociceptive pain remain unexplored. A series of structurally diverse PPAR-α agonists were tested for their ability to reduce pain behavior in an animal model of chemical tissue damage. Injection of formalin into the mouse hind paw evokes a nocifensive behavior consisting of two distinct phases. The first phase results from direct activation of nociceptive fibers and starts immediately after formalin administration, while the second phase develops over a period of approximately 60 min and is associated with local inflammation and central sensitization.
Mice received intraplantar injections of formalin (5% vol/vol, 10 μl) in saline containing polyethylene glycol (5%) and Tween 80 (5%). The duration of paw licking was monitored by an observer for periods of 0-15 min (early or first phase) and 15-45 min (late or second phase) immediately after formalin administration.
Formalin test. Formalin (5%, 10 μl)-induced paw licking was monitored for 0-15 min (first phase) and 15-45 min (second phase) as described (Calignano, et al., Nature 394, 277-81 (1998).

In assay [2] the test system is mice. The assay is described as follows: TPA-induced ear edema (irritant contact dermatitis). Type of assay: in vivo, mouse. The source says:
In addition to rapid-onset analgesia, PEA also exerts prolonged anti-inflammatory effects [Benvenuti, et al., Boll Soc It Biol Sper 44, 809-813 (1968); Lambert, et al., Curr Med. Chem. 9, 663-74 (2002)], which are associated with the down-regulation of pro-inflammatory proteins such as nitric oxide synthase (NOS) [Costa, et al., Br J Pharmacol 137, 413-20. (2002)]. Two models of acute inflammation were used to examine whether such effects are mediated through PPARα. First, paw edema was induced in C57B16J wild-type and PPARα^−/− mice by local injection of the irritant, carrageenan [Cirino, et al., Eur J Pharmacol 166, 505-10 (1989)]. […] Next, ear edema was produced in CD1 mice by topical administration of the phorbol ester, 12-O-tetradecanoylphorbol-13-acetate (TPA) [Sheu, et al., J Invest Dermatol., 94-101. (2002)]. […] In a parallel set of experiments, the effects of PEA (20 μg) on TPA-induced edema were tested in C57B16J wild-type and PPARα^−/− mice. […] Together, these findings indicate that PEA reduces acute nociception and inflammation through activation of PPARα.
As previous described procedure [Sheu, et al., J Invest Dermatol., 94-101. (2002)], 12-O-tetradecanoylphorbol-13-acetate (TPA) was dissolved in acetone (0.03%, w v^−1) and topically delivered with a pipette to the inner and outer surfaces (10 μl/side) of mice ears. Experimental agents were dissolved in acetone and delivered topically (20 μl/side) 45 minutes and 4 hours after TPA. 18 hours after TPA administration, the mice were euthanized with CO2 and the ears punched (diameter=2 mm) four times. The 4 excised punches of skin were combined and weighed to assess edema.

Where [3] appears, read: topical co-application, CD1 mice.

T1 sequence (P34972 whole entry): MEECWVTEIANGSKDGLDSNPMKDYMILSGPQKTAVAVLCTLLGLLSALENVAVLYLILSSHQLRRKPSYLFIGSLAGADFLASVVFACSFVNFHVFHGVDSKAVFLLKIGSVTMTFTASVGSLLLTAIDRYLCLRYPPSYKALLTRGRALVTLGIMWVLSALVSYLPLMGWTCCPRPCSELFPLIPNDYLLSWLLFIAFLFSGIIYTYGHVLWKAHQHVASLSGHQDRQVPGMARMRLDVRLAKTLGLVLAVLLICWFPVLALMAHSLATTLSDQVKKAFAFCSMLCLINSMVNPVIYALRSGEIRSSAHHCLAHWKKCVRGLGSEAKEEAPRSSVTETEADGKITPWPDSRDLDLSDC

For the molecule `CCCCCCCCCCCCCCCC(=O)NCCO` [PEA, palmitoylethanolamide], the “TPA-induced edema of abdominal skin” value in the assay with C57BL6/J mice is on record as “attenuated TPA-induced edema”. In the assay with Swiss mice (30 mg-kg^−1 s.c. once a day for 14 consecutive days from surgery), the “mechanical sensitivity thresholds after repeated dosing, vs vehicle-treated mice” value is “significantly higher”. The “mechanical and thermal pain thresholds in the non-ligated paw of neuropathic mice” value in the assay on Swiss mice was “did not affect”. Also, the “dose dependence of antihyperalgesic response (mechanical withdrawal, day 14)” value in the assay with Swiss mice (s.c.) was “dose-dependent”. Also, the “neuropathic hypersensitivity (mechanical and thermal pain thresholds), ligated limb” value in the assay with Swiss mice was “reversal of neuropathic hypersensitivity”. Besides, the “PPARα mRNA expression” value in the assay on PPARα mRNA was “increase in PPARα mRNA expression”. Besides, the “[^3H]-WIN-55212-2 Binding (% of control)” value is 106.2 ± 2.5 % of control at human CB2 (Concentration 1 μM) and 98.5 ± 4.2 % of control on human CB2 (Concentration 10 μM). Moreover, in the assay on mice [1] (Swiss mice), the “early and late phase formalin-evoked nociception, combination with anandamide” value is “synergistically inhibit”. For the same molecule, the “anti-inflammatory effect (paw weight) after formalin” value in the assay on mice [1] is recorded as “absence of anti-inflammatory effects”. The “formalin pain in PPARα−/− mice” value with mice [1] (50 μg i.pl.) is “absent”. Besides, the “ED50 of antinociceptive effect in the formalin model” value in the assay with mice [1] (i.pl.) was 7.4 µg. The “phase I and II formalin pain in wild-type mice” value in the assay with mice [1] (wild-type C57BL6 mice, 50 μg i.pl.) is on record as “attenuated these responses only in wild-type animals”. The “TPA-induced edema in wild-type and PPARα−/− mice” value in the assay with mice [2] (PEA 20 μg, C57Bl6J wild-type and PPARα−/− mice) is “effective only in wild-type animals”. Further, the “TPA-induced ear edema formation” value with mice [2] (setting [3]) was “attenuated”. For the same molecule, the “ED50, TPA-induced ear edema” value with mice [2] (topical co-application, CD1 mice, n=5) came to 8.9 μg per ear.

`CC(C)(Sc1ccc(CCN(CCCCC2CCCCC2)C(=O)NC2CCCCC2)cc1)C(=O)O` [GW7647]: in the assay on C57BL6/J mice, the “TPA-induced edema of abdominal skin” value is reported as “attenuated TPA-induced edema”. Moreover, in the assay on Swiss mice, the “mechanical and thermal pain thresholds in the non-ligated paw of neuropathic mice” value is listed as “did not affect”; the “neuropathic hypersensitivity (mechanical and thermal pain thresholds), ligated limb” value is “mimicked”. The “PPARα mRNA expression” value in the assay on PPARα mRNA was “increase in PPARα mRNA expression”. The “[^3H]-WIN-55212-2 Binding (% of control)” value at human CB2 (Concentration 1 μM) is 102.1 ± 4.0 % of control. Moreover, the “[^3H]-WIN-55212-2 Binding (% of control)” value at human CB2 (Concentration 10 μM) was 91.6 ± 4.1 % of control. Moreover, the “early and late phase formalin-evoked nociception, combination with anandamide” value with mice [1] (Swiss mice) was “Mimicry of this synergism”. For the same molecule, in the assay with mice [1], the “anti-inflammatory effect (paw weight) after formalin” value is “absence of anti-inflammatory effects”. The “formalin pain in PPARα−/− mice” value with mice [1] (50 μg i.pl.) is given as “failed to respond”. The “first- and second-phase nociception” value in the assay with mice [1] (Swiss mice, i.pl. together with formalin, GW7647 0.1-50 μg, Wy-14643 50-200 μg, fenofibric acid 100-400 μg) is “attenuated first- and second-phase nociception in a dose-dependent manner”. The “average half-maximal effective dose (ED50) to reduce first-phase pain” value in the assay on mice [1] (intraplantar with formalin, Swiss mice, ten experiments) worked out at 9.9 µg. Besides, in the assay with mice [2] (PPARα−/− mice), the “anti-inflammatory activity on TPA-induced edema in PPARα−/− mice” value is on record as “residual, albeit weak anti-inflammatory activity”. Besides, the “TPA-induced ear edema formation” value in the assay with mice [2] (setting [3]) is reported as “attenuated”.
